Where a name gives a salt, the structure may show the parent alone. Read-outs that look alike come from different tables or passages of the source. Blank lines part the entries; values can stand above or below the compound they belong to. Where a SMILES comes first, the peptide text is derived from it. [ ]: non-standard residue; d: D form. dCit = NC(=O)NCCC[C@@H](N)C(=O)O
How the values were obtained:
[1] = test system: FP receptor; conditions: cited from earlier work
[2] = test system: C-PAF; conditions: 0.1 mM THG113
Experimental: To prepare eyecups, a circular incision was made 3-4 mm posterior to ora serrata to remove the […] and vitreous body with minimal handling of the retina. The remaining eyecup was fixed with pins to a wax base in a 20 ml tissue bath containing 20 ml of Kreb's buffer (pH 7.35-7.45) and equilibrated with 21% oxygen and 5% carbon dioxide at 37° C. The preparations were allowed to stabilize for 30 min.
The outer vessel diameter was recorded with a video camera mounted on a dissecting microscope (Zeiss M 400) and the responses were quantified by a digital image analyzer (Sigma Scan Software, Jandel Scientific, Corte Madera, Calif.). Vascular diameter was recorded before and 5 min following the topical application of the agonist.

[3] = test system: acetylcholine (uncharacterized subtypes); experiment: Porcine microvascular contraction to acetylcholine (selectivity); conditions: agonist Acetylcholine 10^−6M; 0.1 mM THG113
Experimental: (§1) The preparations were allowed to stabilize for 30 min.

[4] = molecular target: T1, human FP receptor (Homo sapiens, UniProt P43088); experiment: Phosphoinositide hydrolysis in FP/293 cells; type: cell-based; conditions: in the presence of 100 nM PGF2α, 30 min
T1 construct: expressed in transfected cells; host or cells: HEK293 (FP/293)
Text: The phosphoinositides were collected by anion exchange chromatography with 1 M ammonium formate/0.1 N formic acid.

[5] = molecular target: T2, FP receptor (Sus scrofa, UniProt C6GAG8); experiment: Porcine retinal (ocular) microvascular contraction to PGF2α, eyecup assay; conditions: for % Inhibition: 100 nM PGF2α, compound at 100 μM
T2 construct: the porcine eyecup model, an ex vivo assay of vascular constriction in porcine retinas; from tissue; host or cells: retinal microvessels in eyecups of newborn pigs pre-treated with ibuprofen
Experimental: as §1
Percent (%) inhibition denotes porcine ocular microvessel contraction in response to 100 nM PGF2α in the presence of 0.1 mM peptide relative to that in the absence of the peptide, expressed as percentage.

[6] = test system: CD-1 mice; experiment: Endotoxin (E. coli LPS) model of mouse preterm labor
Experimental: Timed-pregnant CD-1 mice (mean gestation was 19.2 days) were purchased and at day 17, alzet pumps containing THG113 in saline were surgically implanted on the back of the animals. These pumps continuously deliver the inhibitor at 1 mg/day. E. coli lipopolysaccharide (LPS) (50 μg i. p. twice at 3 h interval) was injected on day 15.
E. coli LPS (50 μg twice three hours apart, i.p) was administered to CD-1 mice (average weight: 50 g) at gestation day 15. Four hours after LPS was administered, alzet osmotic pumps that delivered 0.1, 0.4 or 0.8 mg/Kg/day of the drug were surgically implanted on the backs of the animals. Normal gestation in this strain is 19.2 days.
E. coli LPS (50 μg twice three hours apart, i.p) was administered to CD-1 mice at gestation day 15. Alzet osmotic pumps that delivered 0.1 mg/Kg/day of the drug were surgically implanted on the backs of the animals. Normal gestation in this strain is 19.2 days.

[7] = molecular target: T1, human FP receptor; experiment: Displacement of bound [3H]PGF2α in FP/293 whole cell assay; type: binding; conditions: FP/293 cells
Text: […] Biophys. Acta 28, 251(3):363-369). […] The radioactivity on the filters was counted by scintillation spectrophotometry. For a detailed method of ligand binding and displacement, see Li at al. (1996). […] Using cloned FP/293 cells in binding assays (see Li et al. for a method of ligand displacement assay), the specific binding of THG113 to FP protein was investigated.

[8] = test system: uterine strips obtained from recently-delivered mice; experiment: Contractility of mouse uterine (myometrial) strips after delivery, organ bath
Experimental: Myometrial strips (1 cm) were dissected from pregnant mice immediately after delivery (when the uterus is still non-quiescent) and suspended in organ baths containing 10 ml of KREB's buffer bubbled with 90% oxygen. Contractile responses were recorded using pressure transducers connected to a Gould polygraph.

[9] = test system: SR Ca^2+ ATPase; experiment: Porcine microvascular contraction to BHQ (intracellular Ca2+ dynamics control); conditions: BHQ 10^−6M; 0.1 mM THG113
Experimental: as §1

[10] = molecular target: T1, human FP receptor; experiment: Specific binding of [125I]-THG113 to FP/293 cells versus parent HEK293 cells; conditions: 10^5 cells, 10^6 cpm, 1 h
Experimental: [^125I]-THG113 was produced by labeling tyrosine residue with [^125I] using the lactoperoxidase method (Thorell et al. 1971 Biochim. Biophys. Acta 28, 251(3):363-369). HEK293 cells ectopically expressing cloned human FP receptor, FP/293, (10^5) were incubated with [^125I]-THG113 (10^6 cpm) for 1 h; bound and unbound ligands were separated by filtration on glass fibre filters. The radioactivity on the filters was counted by scintillation spectrophotometry. For a detailed method of ligand binding and displacement, see Li at al. (1996). […] Using cloned FP/293 cells in binding assays (see Li et al. for a method of ligand displacement assay), the specific binding of THG113 to FP protein was investigated.

[11] = test system: Urotensin; experiment: Porcine microvascular contraction to urotensin (selectivity); conditions: agonist Urotensin 10^−6M; 0.1 mM THG113
Experimental: as §1

[12] = test system: myometrial strips; experiment: Contractility of bovine myometrial strips
[13] = test system: TP, EP1, angiotensin AT1, endothelin receptor, alpha adrenergic receptors; experiment: Specificity in porcine ocular microvessel contractility assays, agonists of other GPCRs; conditions: 1 μM peptide
[14] = test system: myometrial strips; experiment: Contractility of ovine myometrial strips
[15] = molecular target: T2, FP receptor; experiment: Porcine retinal (ocular) microvascular contraction to PGF2α, eyecup assay

T1 sequence (P43088 whole entry): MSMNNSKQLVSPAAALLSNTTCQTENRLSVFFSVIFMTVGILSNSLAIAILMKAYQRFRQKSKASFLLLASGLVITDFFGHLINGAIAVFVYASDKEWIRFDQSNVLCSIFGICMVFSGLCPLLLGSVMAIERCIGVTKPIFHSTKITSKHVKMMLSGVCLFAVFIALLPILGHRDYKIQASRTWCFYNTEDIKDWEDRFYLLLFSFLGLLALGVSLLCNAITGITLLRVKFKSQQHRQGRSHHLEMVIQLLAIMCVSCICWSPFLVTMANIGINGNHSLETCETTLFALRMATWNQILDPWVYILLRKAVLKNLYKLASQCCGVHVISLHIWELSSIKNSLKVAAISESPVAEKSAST
T2 sequence (C6GAG8 1-362): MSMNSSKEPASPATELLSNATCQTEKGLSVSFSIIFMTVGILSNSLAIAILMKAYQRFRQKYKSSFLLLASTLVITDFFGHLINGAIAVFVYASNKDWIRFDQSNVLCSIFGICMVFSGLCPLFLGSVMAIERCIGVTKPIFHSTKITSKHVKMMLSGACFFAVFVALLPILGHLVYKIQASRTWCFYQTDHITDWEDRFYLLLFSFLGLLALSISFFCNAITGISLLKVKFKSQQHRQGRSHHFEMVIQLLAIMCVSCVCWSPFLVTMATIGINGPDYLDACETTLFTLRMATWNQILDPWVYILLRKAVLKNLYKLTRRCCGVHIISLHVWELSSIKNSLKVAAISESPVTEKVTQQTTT

Structure (SMILES): O=C(O)CCC/C=C\C[C@@H]1[C@@H](/C=C/[C@H](O)C2Cc3ccccc3C2)[C@@H](F)C[C@@H]1O [AL8810]
activity at FP receptor [1]: weak partial agonist

Structure (SMILES): CC[C@@H](C)[C@@H](N)C(=O)N[C@H](CC(C)C)C(=O)NCC(=O)N[C@H](Cc1c[nH]cn1)C(=O)N[C@H](CCCNC(=N)N)C(=O)N[C@H](CC(=O)O)C(=O)N[C@H](Cc1ccc(O)cc1)C(=O)N[C@H](CCCCN)C(=O)O [Compound 1] (H-[dI][dL]G[dH][dR][dD][dY][dK]-OH; N-terminus and C-terminus assumed)
% Inhibition ([2]; agonist C-PAF 10^−6M): <1%
% Inhibition ([2]; agonist C-PAF 10^−7M): <1%
% Inhibition [3]: <1%
inhibition of PGF2α-stimulated phosphoinositide hydrolysis [4]: dose-dependently inhibited
contractile response to supra-physiological levels of PGF2α ([5]; 100 μM THG113): failed to produce contractile response
selectivity of inhibition among GPCR agonists ([5]; 0.1 mM THG113, 0.1 μM concentration of the agonists): selective for FP receptor only
animals with labor delayed past 15 h after LPS ([6]; alzet pump 1 mg/day): 60%
mean time of delivery ([6]; alzet pump 1 mg/day, after LPS): 36 h
displacement of [3H]PGF2α binding [7]: little displacement
time until spontaneous and PGF2α (1 μM)-induced contractile responses were diminished ([8]; after addition of 100 μM THG113): ≤ 20 min
% Inhibition [9]: <1%
specific binding of [125I]-THG113 to FP/293 cells relative to parent HEK293 cells [10]: 27 fold
% Inhibition [11]: <1%

Structure (SMILES): CC[C@@H](C)[C@@H](N)C(=O)N[C@H](CC(C)C)C(=O)NCC(=O)N[C@H](Cc1c[nH]cn1)C(=O)N[C@H](CCCNC(N)=O)C(=O)N[C@H](CC(=O)O)C(=O)N[C@H](Cc1ccc(O)cc1)C(=O)N[C@H](CCCCN)C(=O)O [Compound 32] (H-[dI][dL]G[dH][dCit][dD][dY][dK]-OH; N-terminus and C-terminus assumed)
reduction of uterine contractile responses [12]: Reductions of similar magnitude
vasomotor responses produced by agonists of other GPCRs, including TP and EP1 [13]: did not affect the vasomotor responses
animals delivered within 15 h after LPS administration ([6]; 0.1 mg (osmotic pump)): less than 30%
animals delivered at 48 h after LPS administration ([6]; 0.4 mg dose): 50-60%
animals delivered within 15 h after LPS administration ([6]; 0.8 mg (osmotic pump)): < 15%
animals delivered at 48 h after LPS administration ([6]; 0.8 mg dose): 50-60%
delay in delivery ([6]; 0.1, 0.4 or 0.8 mg/Kg/day): dose-dependent delay in delivery
reduction of uterine contractile responses [14]: Reductions of similar magnitude
selectivity for FP receptor ([15]; 1 μM peptide): selective inhibitor of FP receptor
uterine contractile responses (contraction duration and mean force of contraction) ([8]; induced by 1 μM PGF2α): dose-dependent reduction

Structure (SMILES): N=C(N)NCCC[C@H](NC(=O)[C@@H]1C[C@H](Cc2ccccc2)[C@@H]2CC[C@H](NC(=O)C3CCCCC3)C(=O)N12)C(=O)N[C@@H](CC(=O)O)C(=O)NCCC(c1ccccc1)c1ccccc1.O=C(O)C(F)(F)F [Compound 34, (3S,6S,7S,9S)-2-oxo-3-cyclohexanecarboxamido-7-benzyl-1-azabicyclo[4.3.0]nonane-9-carboxyl-L-argininyl-L-aspartyl-3′,3′-diphenylpropylamide trifluoroacetate]
% Inhibition ([15]; 100 nM PGF2α, compound at 50 μM): 63.2%

Structure (SMILES): N=C(N)NCCC[C@H](NC(=O)[C@@H]1CC[C@@H]2CC[C@H](NC(=O)Cc3ccccc3)C(=O)N21)C(=O)N[C@@H](Cc1ccccc1)C(=O)O.O=C(O)C(F)(F)F [Compound 46, (3S,6S,9S)-2-oxo-3-phenylacetamido-1-azabicyclo[4.3.0]nonane-9-carboxyl-L-argininyl-L-phenylalanine trifluoroacetate]
% Inhibition [5]: 51.1%

Structure (SMILES): N=C(N)NCCC[C@H](NC(=O)[C@@H]1CC[C@@H]2CC[C@H](NC(=O)Cc3ccccc3)C(=O)N21)C(=O)N[C@H](CC(=O)O)Cc1ccccc1 [Compound 47, (3S,6S,9S)-2-oxo-3-phenylacetamido-1-azabicyclo[4.3.0]nonane-9-carboxyl-L-argininyl-(3′S)-3′-amino-4′-phenylbutanoic acid trifluoroacetate]
IC50 [5]: 1.6 nM
animals delivered within the first 15 h after endotoxin administration ([6]; 0.1 mg/Kg/day osmotic pump): Less than 25%

IC50 [5]: 3.5 nM
Structure (SMILES): N=C(N)NCCC[C@H](NC(=O)[C@@H]1CC[C@@H]2CC[C@H](NC(=O)Cc3ccccc3)C(=O)N21)C(=O)N[C@@H](CCc1ccccc1)CC(=O)O [Compound 48, (3S,6S,9S)-2-oxo-3-phenylacetamido-1-azabicyclo[4.3.0]nonane-9-carboxyl-L-argininyl-(3′S)-3′-amino-5′-phenylpentanoic acid trifluoroacetate]

Structure (SMILES): N=C(N)NCCC[C@H](NC(=O)[C@@H]1CC[C@@H]2CC[C@H](NC(=O)Cc3ccccc3)C(=O)N21)C(=O)N[C@H](CCc1ccccc1)CC(=O)O.O=C(O)C(F)(F)F [Compound 49, (3S,6S,9S)-2-oxo-3-phenylacetamido-1-azabicyclo[4.3.0]nonane-9-carboxyl-L-argininyl-(3′R)-3′-amino-5′-phenylpentanoic acid trifluoroacetate]
% Inhibition [5]: 59.5%

Structure (SMILES): CCCCC[C@H](O)/C=C/[C@@H]1[C@@H](C/C=C\CCCC(=O)O)[C@@H](O)C[C@H]1O [PGF2α, prostaglandin F2α, reference compound]
displacement of [3H]PGF2α binding [7]: completely displaced

Structure (SMILES): O=C(CCc1ccc(O)cc1)c1c(O)cc(O)cc1O [Phloretin]
IC50 ([1]; antagonist of FP receptor): 20000 nM
